Experimental data from patent publication US11304956B2, “Use of 7-bromo-5-(O-chlorophenyl)-3-propoxy-1,2-dihydro-3H-1,4-benzodiazepin-2-one for inhibition of neuropathic pain and seizures of different etiology” (priority 2016, dated 2022).

Tests used:
formalin test in mice = test: Formalin test (licking time of the injected paw); format: in vivo, white male non-linear mice; details: for I phase, % effect (decrease in the time of licking of the paw): phase 0-5 min; for II phase, effect (decrease in the time of licking of the paw): phase 15-40 min
MES-induced seizures = test: Maximal electroshock (MES) seizures; format: in vivo, non-linear male mice; details: Mus musculus; mice; corneal electrodes 50 Hz, 50 mA, 0.2 s; interval in brackets; read-out: Anticonvulsive activity (ED50), MES
Text: In many cases, the presence of anticonvulsant (antiepileptic) effect of the compounds correlates with analgesic properties on corresponding models of neuralgia. As a general step is a primary screening of new anticonvulsant compounds on rodents with the help of pentylenetetrazole test and MES (maximal electroshock seizures) as they have a qualitative difference in development and manifestations of seizures. It is believed that the compound ability to prevent the MES-induced seizures is connected with impulse spread inhibition throughout the central nervous system. It is believed that the ability to prevent the MES-induced seizures development indicates the potential efficacy of the compound in the preventing propagation of a pulse along the neural tissue (see Tompson E. Medicines. Bioscreening/Under the editorship of A. V. Stefanova.-K.: Avitsenna, 1998.—250 p.).
For MES-induced seizures experimental animals were exposed to electric stimulation through the corneal electrodes (50 Hz, 50 mA for mice during 0.2 s). The number of animals with the maximum tonic extension of the hind limbs, which occurs in almost 100% of the animals in the control group, was calculated. For the statistically significant determination of ED50, 3 doses of the test compound were used; the effect of each dose was studied in 6-8 animals.

gastric mucosa = test: Ulcerogenic effect, chronic experiment (28 days intragastric); format: in vivo, rats; details: 0.5 mg/kg intragastrally for 28 days, n = 14
Procedure: Evaluation of ulcerogenic action was carried out on a 4-score scale:
0 score—no damage; 0.5 score—hyperemia (blood vessels overflow)
1 score—single minor lesions (1-3 point hemorrhages or small ulcers)
2 score—multiple (more than 3) lesions (erosions, pinpoint hemorrhages) or 1 large ulcer
3 score—significant and massive damages (erosions, hemorrhages) of the gastric mucosa with significant size (diameter up to 4 mm)
4 score—gross injuries (massive hemorrhages, erosions, perforations) that cover the entire surface of the gastric mucosa.
The average multiplicity index of damage to the gastric mucosa (the number of ulcers per animal) and the severity of the damage (in scores) were determined.
To determine the safety of this compound in a chronic trial during long-term administration, it was administered to rats for 28 days at a dose close to ED50 by analgesic effect (0.5 mg/kg).
The data presented indicate that there is no serious damage to the stomach from the test compound, even when administered at very high doses, several orders higher than the average effective doses, and which are close to the upper limit of permitted doses that can be administered to rats once. Therefore, at the next stage it became reasonable to determine the effect of Compound 1 on the stomach after prolonged use (28 days) in an average effective dose of 0.5 mg/kg.

[1] = 0.01 mg/kg intraperitoneally 40 min before formalin
[2] = 0.10 mg/kg intraperitoneally 40 min before formalin
[3] = 3.00 mg/kg intraperitoneally 40 min before formalin

CCCOC1N=C(c2ccccc2Cl)c2cc(Br)ccc2NC1=O (stereo not shown) [Compound 1, 7-bromo-5-(o-chlorophenyl)-3-propoxy-1,2-dihydro-3H-1,4-benzodiazepin-2-one]
I phase, % effect (decrease in the time of licking of the paw) (formalin test in mice; [1]): 15.00 ± 4.11%
II phase, effect (decrease in the time of licking of the paw) (formalin test in mice; [1]): 32.10 ± 10.10
I phase, % effect (decrease in the time of licking of the paw) (formalin test in mice; [2]): 76.00 ± 6.50 %
II phase, effect (decrease in the time of licking of the paw) (formalin test in mice; [2]): 54.00 ± 8.60
I phase, % effect (decrease in the time of licking of the paw) (formalin test in mice; [3]): 91.10 ± 18.80 %
II phase, effect (decrease in the time of licking of the paw) (formalin test in mice; [3]): 98.4 ± 15.0
Activity in the first phase relative to diclofenac sodium (formalin test in mice; Compound 1 at 0.1 mg/kg vs diclofenac sodium at 10 mg/kg, first phase): 1.5 times
ED50 (MES-induced seizures): 8.2 mg/kg
Number of animals with different degrees lesions of the gastric mucosa, score 1 (gastric mucosa): 4
Number of animals with different degrees lesions of the gastric mucosa, score 3 (gastric mucosa): 0
Number of animals with different degrees lesions of the gastric mucosa, score 4 (gastric mucosa): 0
The multiplicity of damage (gastric mucosa): 0.5±0.23
Average score (gastric mucosa; 4-score scale): 0.4±0.17
